Measured values as given in patent US20240090506A1, “SURFACE MODIFICATION TO REGULATE PLANT GROWTH” (BIND-X GMBH, priority 2020, published 2024).

Test system: Plantago lanceolate (ribwort plantain) and Poa annua (annual meadow grass)
Test: Pot test with solid (powdered) alkali silicates or mixtures: weed coverage rate, degree of efficiency = weed penetration resistance (Example 2)
Assay type: in vivo
Settings: in the dosage used in the mixtures
Description: The experiment was carried out in the laboratory in plant pots with a volume of 450 cm^3. The application area was 78.5 cm^2. The soil substrate was a sifted land soil. Humus (humic soil) was used as a nutrient source for the desired plant. […] On top of the humic soil, 250 g of sifted land soil was placed. Both soil substrates were free of weed growth prior to treatment. Both soils contained minimal residues of endemic weed seeds or inflowing seeds. These present seeds were not sufficient for efficient weed growth. […] For this purpose, the weeds were worked into the top soil layer in a depth of 2-4 mm. Different alkali silicate powders were used in this experiment, which are specified in detail below. Hardeners and/or performance modifiers were added, if applicable. The solid formulations were mixed and then applied homogeneously to the soil surface. […] The coverage rate was determined by manual visual assessment of the plant pots at the specified times, as described in example 1. […] From this in turn the degree of efficiency according to Abbott was calculated as follows: Degree of efficiency=[coverage rate control(day x)−coverage rate product(day x)]/coverage rate control(day x)*100 Furthermore, the quality of the formed layer was observed regularly with respect to crack formation. […]

CC(=O)[O-].CC(=O)[O-].[Ca+2] [calcium acetate]
weed penetration resistance of the performance modifier alone: An effect is observed only at the beginning of the experiment
